The values that follow come from PubChem BioAssay AID1963860 (Molecular Pharmacology Branch, DTP, NCI, 2024).

The test system of the assay is CN0375-F725-PDC KRAS spheroid viability. In words: Anticancer human tumor CN0375-F725-PDC patient-derived colon carcinoma cell line growth inhibition [KRAS2]. The note with it: spheroids with HUVEC and MSC; for viability, T/C: stronger effect = lower value. A digest of the protocol:
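KRAS-mutant tumor cells were grown as spheroids with HUVEC endothelial cells and human MSCs as stroma. Targeted agents were tested alone and with KRAS pathway inhibitors. Doses started at or near clinical Cmax, or 10 microM, descending half-log.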
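Note: spheroids exposed to agents for 7 days.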

What is called IC50 is the midpoint of a concentration-inhibition curve. What is called viability, T/C is the ratio of treated to control. Take `Cn1ncnc1[C@H]1c2n[nH]c(=O)c3cc(F)cc(c23)N[C@@H]1c1ccc(F)cc1` + COc1cc2nc(C)nc(NC(C)c3cc(N)cc(C(F)(F)F)c3)c2cc1OC1CCOC1: the concentration for half-maximal inhibition (IC50) was > 100 nM (curve of first compound, second compound 0.1 µM); > 100 nM (curve of first compound, second compound 0.316 µM); > 100 nM (curve of first compound, second compound 1 µM); > 100 nM (curve of first compound, second compound 3.16 µM); < 0.316 nM (curve of first compound, second compound 10 µM). Moreover, the viability, T/C reads like this: (second compound 0.1 µM, first compound 0.000316 µM) 103%; (second compound 0.1 µM, first compound 0.001 µM) 98.8%; (second compound 0.1 µM, first compound 0.00316 µM) 96.7%; (second compound 0.1 µM, first compound 0.01 µM) 97.9%; (second compound 0.1 µM, first compound 0.0316 µM) 98%; (second compound 0.1 µM, first compound 0.1 µM) 94.9%. For the same compound, the viability, T/C is 97.2% (second compound 0.316 µM, first compound 0.000316 µM); 104% (second compound 0.316 µM, first compound 0.001 µM); 94.2% (second compound 0.316 µM, first compound 0.00316 µM); 92.5% (second compound 0.316 µM, first compound 0.01 µM); 96.4% (second compound 0.316 µM, first compound 0.0316 µM); 93.1% (second compound 0.316 µM, first compound 0.1 µM). The viability, T/C by setting is: (second compound 1 µM, first compound 0.000316 µM) 97.7%; (second compound 1 µM, first compound 0.001 µM) 105%; (second compound 1 µM, first compound 0.00316 µM) 86.9%; (second compound 1 µM, first compound 0.01 µM) 86.7%; (second compound 1 µM, first compound 0.0316 µM) 88.8%; (second compound 1 µM, first compound 0.1 µM) 86.4%. Also, the viability, T/C is, setting by setting: (second compound 3.16 µM, first compound 0.000316 µM) 88.6%; (second compound 3.16 µM, first compound 0.001 µM) 94%; (second compound 3.16 µM, first compound 0.00316 µM) 84.1%; (second compound 3.16 µM, first compound 0.01 µM) 76.8%; (second compound 3.16 µM, first compound 0.0316 µM) 79.4%; (second compound 3.16 µM, first compound 0.1 µM) 76.8%. The viability, T/C is, setting by setting: (second compound 10 µM, first compound 0.000316 µM) 11.7%; (second compound 10 µM, first compound 0.001 µM) 14%; (second compound 10 µM, first compound 0.00316 µM) 6.8%; (second compound 10 µM, first compound 0.01 µM) 13.3%; (second compound 10 µM, first compound 0.0316 µM) 5.32%; (second compound 10 µM, first compound 0.1 µM) 10.4%.

Take `CN(C)C/C=C/C(=O)Nc1cc2c(Nc3ccc(F)c(Cl)c3)ncnc2cc1O[C@H]1CCOC1`: the viability, T/C runs as follows: (compound 0.000316 µM) 105% [middle of 5 runs]; (compound 0.001 µM) 94.1% [middle of 5 runs]; (compound 0.00316 µM) 90.4% [middle of 5 runs]; (compound 0.01 µM) 88.3% [middle of 5 runs]; (compound 0.0316 µM) 79.2% [middle of 5 runs]; (compound 0.1 µM) 81.1% [middle of 5 runs]. In addition, the IC50 (curve of compound) is > 100 nM.
